Data taken from patent publication US8394967B2, “Antioxidant inflammation modulators: C-17 homologated oleanolic acid derivatives” (Reata Pharmaceuticals, Inc., priority 2008, dated 2013).
Read-outs that look alike come from different tables or passages of the source.

What was measured:
γ-GCS = test: Nrf2 target gene induction, MDA-MB-435 (qPCR): γ-GCS; format: cell-based; conditions: Homo sapiens; MDA-MB-435, 250 nM, 16 hours, mRNA by qPCR
Method: (§1) Nrf2 target gene induction. MDA-MB-435 human melanoma cells were treated with vehicle (DMSO) or the indicated compounds and concentrations for 16 hours. HO-1, thioredoxin reductase-1 (TrxR1), γ-glutamylcysteine synthetase (γ-GCS), and ferritin heavy chain mRNA levels were quantified using qPCR and were normalized relative to a DMSO-treated sample run in parallel. Values are averages of duplicate wells. Primer sequences are as follows.

HO-1 = test: Nrf2 target gene induction, MDA-MB-435 (qPCR): HO-1; format: cell-based; conditions: Homo sapiens; MDA-MB-435, 250 nM, 16 hours, mRNA by qPCR
Method: as §1

[1] = system: NO production in RAW264.7 macrophages; test: Inhibition of NO production in IFNγ-treated RAW264.7 macrophages (Griess reagent); format: cell-based, mouse; conditions: then 20 ng/ml IFNγ for 24 hours
Method: (§2) FIGS. 1-4, 6 and 8. Inhibition of NO Production. RAW264.7 macrophages were pre-treated with DMSO or drugs at various concentrations (nM) for 2 hours, then treated with 20 ng/ml IFNγ for 24 hours. NO concentration in media was determined using a Griess reagent system; cell viability was determined using WST-1 reagent.
(§3) Nitric Oxide production and cell viability. RAW264.7 macrophages were pre-treated with DMSO or drugs for 2 hours, then treated with recombinant mouse IFNγ (Sigma) for 24 hours. NO concentration in media was determined using the Griess reagent system (Promega). Cell viability was determined using WST-1 reagent (Roche).

RAW264.7 macrophages = test: Cell viability of RAW264.7 macrophages (WST-1 reagent); format: cell-based, mouse; conditions: cell viability, RAW264.7, 20 ng/ml IFNγ 24 hours, WST-1 reagent, read-out: RAW264.7 (20 ng/ml IFNγ) WST-1 IC50
Method: as §2, §3

NQO1 = test: Nrf2 target gene induction, MDA-MB-435 (qPCR): NQO1; format: cell-based; conditions: Homo sapiens; MDA-MB-435, 250 nM, 16 hours, mRNA by qPCR
[2] = Mus musculus, RAW264.7, RAW264.7 macrophages pre-treated 2 hours

| IC50 [1, 2] | IC50 ([1]; RAW264.7 macrophages pre-treated 2 hours) | SMILES | fold induction at 0.25 µM (γ-GCS) | fold induction at 0.25 µM (HO-1) | IC50 (RAW264.7 macrophages; Mus musculus, RAW264.7, 24 h) | fold induction at 0.25 µM (NQO1) | IC50 (RAW264.7 macrophages) |
| --- | --- | --- | --- | --- | --- | --- | --- |
| ~25 nM | – | CC1(C)CC[C@]2(CN)CC[C@]3(C)[C@H](C(=O)C[C@@H]4[C@@]5(C)C=C(C#N)C(=O)C(C)(C)[C@@H]5CC[C@]43C)[C@@H]2C1 [Compound 63214, (6aR,6bR,8aS,12aS,12bR,14bR)-8a-(aminomethyl)-4,4,6a,6b,11,11,14b-heptamethyl-3,13-dioxo-3,4,4a,5,6,6a,6b,7,8,8a,9,10,11,12,12a,12b,13,14,14a,14b-icosahydropicene-2-carbonitrile] | 3 | 2 | > 200 nM | 1.8 | – |
| ~25 nM | – | CC1(C)CC[C@]2(CNCC#N)CC[C@]3(C)[C@H](C(=O)C[C@@H]4[C@@]5(C)C=C(C#N)C(=O)C(C)(C)[C@@H]5CC[C@]43C)[C@@H]2C1 [Compound 63218, (4aR,6aR,6bR,8aS,12aS,12bR,14aR,14bR)-8a-((cyanomethylamino)methyl)-4,4,6a,6b,11,11,14b-heptamethyl-3,13-dioxo-3,4,4a,5,6,6a,6b,7,8,8a,9,10,11,12,12a,12b,13,14,14a,14b-icosahydropicene-2-carbonitrile] | 10 | 3 | > 200 nM | 3.4 | – |
| ~15 nM | – | CC1(C)CC[C@]2([C@@H](O)CO)CC[C@]3(C)[C@H](C(=O)C[C@@H]4[C@@]5(C)C=C(C#N)C(=O)C(C)(C)[C@@H]5CC[C@]43C)[C@@H]2C1 [Compound 63221, (4aR,6aR,6bR,8aS,12aS,12bR,14aR,14bR)-8a-((R)-1,2-dihydroxyethyl)-4,4,6a,6b,11,11,14b-heptamethyl-3,13-dioxo-3,4,4a,5,6,6a,6b,7,8,8a,9,10,11,12,12a,12b,13,14,14a,14b-icosahydropicene-2-carbonitrile] | 4.5 | 2 | > 200 nM | 2 | – |
| ~15 nM | – | CC1(C)CC[C@]2([C@@H]3CO3)CC[C@]3(C)[C@H](C(=O)C[C@@H]4[C@@]5(C)C=C(C#N)C(=O)C(C)(C)[C@@H]5CC[C@]43C)[C@@H]2C1 [Compound 63275, (4aR,6aR,6bR,8aS,12aS,12bR,14aR,14bR)-4,4,6a,6b,11,11,14b-heptamethyl-8a-((R)-oxiran-2-yl)-3,13-dioxo-3,4,4a,5,6,6a,6b,7,8,8a,9,10,11,12,12a,12b,13,14,14a,14b-icosahydropicene-2-carbonitrile] | – | – | > 200 nM | – | – |
| ~18 nM | – | C#C[C@]12CCC(C)(C)C[C@H]1[C@H]1C(=O)C[C@@H]3[C@@]4(C)C=C(C#N)C(=O)C(C)(C)[C@@H]4CC[C@@]3(C)[C@]1(C)CC2 [Compound 63303, (4aR,6aR,6bR,8aS,12aS,12bR,14aR,14bR)-8a-ethynyl-4,4,6a,6b,11,11,14b-heptamethyl-3,13-dioxo-3,4,4a,5,6,6a,6b,7,8,8a,9,10,11,12,12a,12b,13,14,14a,14b-icosahydropicene-2-carbonitrile] | – | – | ~150 nM | – | – |

The next lines start with the molecule.

| SMILES | IC50 [1, 2] | IC50 ([1]; RAW264.7 macrophages pre-treated 2 hours) | fold induction at 0.25 µM (γ-GCS) | fold induction at 0.25 µM (HO-1) | IC50 (RAW264.7 macrophages; Mus musculus, RAW264.7, 24 h) | fold induction at 0.25 µM (NQO1) | IC50 (RAW264.7 macrophages) |
| --- | --- | --- | --- | --- | --- | --- | --- |
| CC1(C)CC[C@]2(CNS(C)(=O)=O)CC[C@]3(C)[C@H](C(=O)CC4[C@@]5(C)C=C(C#N)C(=O)C(C)(C)C5CC[C@]43C)[C@@H]2C1 (stereo partly drawn) [Compound 63220, N-(((4aS,6aR,6bR,12aR,14aR,14bS)-11-cyano-2,2,6a,6b,9,9,12a-heptamethyl-10,14-dioxo-1,2,3,4,4a,5,6,6a,6b,7,8,8a,9,10,12a,12b,13,14,14a,14b-icosahydropicen-4a-yl)methyl)methanesulfonamide] | ~15 nM | – | 6 | 3 | > 200 nM | 2 | – |
| CC1(C)CC[C@@]23CC[C@@]4(C)[C@]5(C)CC[C@H]6C(C)(C)C(=O)C(C#N)=C[C@]6(C)[C@H]5CC(=O)[C@]4(OC2CO)[C@@H]3C1 (some centres unmarked) [Compound 63224] | ~20 nM | – | 8 | 4 | > 200 nM | 2.5 | – |
| CC1(C)CC[C@]2(CNS(=O)(=O)CC(F)(F)F)CC[C@]3(C)[C@H](C(=O)C[C@@H]4[C@@]5(C)C=C(C#N)C(=O)C(C)(C)[C@@H]5CC[C@]43C)[C@@H]2C1 [Compound 63225, N-(((4aS,6aR,6bR,8aR,12aR,12bR,14aR,14bS)-11-cyano-2,2,6a,6b,9,9,12a-heptamethyl-10,14-dioxo-1,2,3,4,4a,5,6,6a,6b,7,8,8a,9,10,12a,12b,13,14,14a,14b-icosahydropicen-4a-yl)methyl)-2,2,2-trifluoroethanesulfonamide] | ~20 nM | – | 6.5 | 4 | > 200 nM | 2.4 | – |
| CC1(C)CC[C@]2(COP(=O)(O)O)CC[C@]3(C)[C@H](C(=O)C[C@@H]4[C@@]5(C)C=C(C#N)C(=O)C(C)(C)[C@@H]5CC[C@]43C)[C@@H]2C1 [Compound 63269, ((4aS,6aR,6bR,8aR,12aR,12bR,14aR,14bS)-11-cyano-2,2,6a,6b,9,9,12a-heptamethyl-10,14-dioxo-1,2,3,4,4a,5,6,6a,6b,7,8,8a,9,10,12a,12b,13,14,14a,14b-icosahydropicen-4a-yl)methyl dihydrogen phosphate] | > 200 nM | – | – | – | > 200 nM | – | – |
| CC1(C)CC[C@]2(CNCC(F)(F)F)CC[C@]3(C)[C@H](C(=O)C[C@@H]4[C@@]5(C)C=C(C#N)C(=O)C(C)(C)[C@@H]5CC[C@]43C)[C@@H]2C1 [Compound 63273, (4aR,6aR,6bR,8aS,12aS,12bR,14aR,14bR)-4,4,6a,6b,11,11,14b-heptamethyl-3,13-dioxo-8a-((2,2,2-trifluoroethylamino)methyl)-3,4,4a,5,6,6a,6b,7,8,8a,9,10,11,12,12a,12b,13,14,14a,14b-icosahydropicene-2-carbonitrile] | ~80 nM | – | – | – | ~200 nM | – | – |
| CC1(C)CC[C@]2(CN3C(=O)c4ccccc4C3=O)CC[C@]3(C)[C@H](C(=O)C[C@@H]4[C@@]5(C)C=C(C#N)C(=O)C(C)(C)[C@@H]5CC[C@]43C)[C@@H]2C1 [Compound 63276, (4aR,6aR,6bR,8aS,12aS,12bR,14aR,14bR)-8a-((1,3-dioxoisoindolin-2-yl)methyl)-4,4,6a,6b,11,11,14b-heptamethyl-3,13-dioxo-3,4,4a,5,6,6a,6b,7,8,8a,9,10,11,12,12a,12b,13,14,14a,14b-icosahydropicene-2-carbonitrile] | ~50 nM | – | – | – | ~150 nM | – | – |
| CC1(C)CC[C@]2([C@H]3COCO3)CC[C@]3(C)[C@H](C(=O)C[C@@H]4[C@@]5(C)C=C(C#N)C(=O)C(C)(C)[C@@H]5CC[C@]43C)[C@@H]2C1 [Compound 63285, (4aR,6aR,6bR,8aS,12aS,12bR,14aR,14bR)-8a-((S)-1,3-dioxolan-4-yl)-4,4,6a,6b,11,11,14b-heptamethyl-3,13-dioxo-3,4,4a,5,6,6a,6b,7,8,8a,9,10,11,12,12a,12b, 13,14,14a,14b-icosahydropicene-2-carbonitrile] | ~15 nM | – | – | – | > 200 nM | – | – |
| CC1(C)CC[C@]2(C[S+]([O-])c3ccccc3)CC[C@]3(C)[C@H](C(=O)C[C@@H]4[C@@]5(C)C=C(C#N)C(=O)C(C)(C)[C@@H]5CC[C@]43C)[C@@H]2C1 (stereo partly drawn) [Compound 63288, (4aR,6aR,6bR,8aS,12aS,12bR,14aR,14bR)-4,4,6a,6b,11,11,14b-heptamethyl-3,13-dioxo-8a-(phenylsulfinylmethyl)-3,4,4a,5,6,6a,6b,7,8,8a,9,10,11,12,12a,12b,13,14,14a,14b-icosahydropicene-2-carbonitrile] | – | ~25 nM | – | – | – | – | ~200 nM |
| CC1(C)CC[C@]2(COC(=O)C(F)(F)F)CC[C@]3(C)[C@H](C(=O)C[C@@H]4[C@@]5(C)C=C(C#N)C(=O)C(C)(C)[C@@H]5CC[C@]43C)[C@@H]2C1 [Compound 63294, ((4aS,6aR,6bR,8aR,12aR,12bR,14aR,14bS)-11-cyano-2,2,6a,6b,9,9,12a-heptamethyl-10,14-dioxo-1,2,3,4,4a,5,6,6a,6b,7,8,8a,9,10,12a,12b,13,14,14a,14b-icosahydropicen-4a-yl)methyl 2,2,2-trifluoroacetate] | ~9 nM | – | – | – | > 200 nM | – | – |
| CC1(C)CC[C@]2(COC(=O)C(C)(C)C)CC[C@]3(C)[C@H](C(=O)C[C@@H]4[C@@]5(C)C=C(C#N)C(=O)C(C)(C)[C@@H]5CC[C@]43C)[C@@H]2C1 [Compound 63297, ((4aS,6aR,6bR,8aR,12aR,12bR,14aR,14bS)-11-cyano-2,2,6a,6b,9,9,12a-heptamethyl-10,14-dioxo-1,2,3,4,4a,5,6,6a,6b,7,8,8a,9,10,12a,12b,13,14,14a,14b-icosahydropicen-4a-yl)methyl pivalate] | ~50 nM | – | – | – | ~200 nM | – | – |
| CC1(C)CC[C@]2(COC(=O)c3ccccc3)CC[C@]3(C)[C@H](C(=O)C[C@@H]4[C@@]5(C)C=C(C#N)C(=O)C(C)(C)[C@@H]5CC[C@]43C)[C@@H]2C1 [Compound 63298, ((4aS,6aR,6bR,8aR,12aR,12bR,14aR,14bS)-11-cyano-2,2,6a,6b,9,9,12a-heptamethyl-10,14-dioxo-1,2,3,4,4a,5,6,6a,6b,7,8,8a,9,10,12a,12b,13,14,14a,14b-icosahydropicen-4a-yl)methyl benzoate] | ~80 nM | – | – | – | ~200 nM | – | – |
